Source: patent US5502066A, “1,2,4-dithiazolium salts as chemotherapeutics” (Bayer Aktiengesellschaft, priority 1993, dated 1996)

Legend:
[1] = system: endotoxemic shock in D-GalN-sensitized mice; test: in vivo; design: lethality, Dose 10 mg/kg / lethality, Dose 30 mg/kg / lethality, Dose 60 mg/kg: unit not given here; details: LPS + D-GalN control 100, 48 hours; for lethality, Dose 10 mg/kg: 10 mg/kg i.p. one hour before LPS (0.1 μg/mouse) + D-GalN (60 mg/kg); for lethality, Dose 30 mg/kg: 30 mg/kg i.p. one hour before LPS (0.1 μg/mouse) + D-GalN (60 mg/kg); for lethality, Dose 60 mg/kg: 60 mg/kg i.p. one hour before LPS (0.1 μg/mouse) + D-GalN (60 mg/kg)
Description: (§1) Substances from the class of dithiazolium salts are described in their protective action by way of example in the following: in vitro in the TNF-α-mediated cytotoxicity test, and in vivo on mice which have been exposed to an endotoxin shock.
(§2) In vivo experiments on inhibition of provoked endotoxin shock were carried out on female inbred mice (F1 B6D2!). Endotoxin/lipopolysaccharide (LPS) from Salmonella abortus equi (0.1 μg/mouse) was administered intraperitoneally or intravenously in association with D-galactosamine hydrochloride (D-GalN; 60 mg/kg of bodyweight) in accordance with reports by Galanos et al. (1979, Proc. Natl. Acad. Sci. USA 76: 5939; V. Lehmann et al. 1987, J. Exp. Med. 165: 657). The substances were administered intraperitoneally one hour before inducement of the endotoxemic shock. The observation period was 48 hours.

in vivo = test: in vivo; design: lethality, Dose 10 mg/kg / lethality, Dose 30 mg/kg / lethality, Dose 60 mg/kg: unit not given here; details: mouse, in vivo, ip; substance 60 mg/kg + D-GalN 60 mg/kg, without LPS; mice; observation 48 hours; read-out: lethality, Substance + D-GalN control
Description: as §1, §2

Row | SMILES | lethality, Dose 10 mg/kg [1] | lethality, Dose 30 mg/kg [1] | lethality, Dose 60 mg/kg [1] | mortality at 48 h (in vivo)
1 | CN(C)c1nc(=[N+](C)Cc2ccc(Cl)cc2Cl)ss1 [Example 48] | 0 | 0 | 0 | 0%
2 | CN(C)c1nc(=[N+](C)Cc2ccc(Cl)cc2)ss1 [Example 46] | 0 | 0 | 0 | 0%
3 | CN(C)c1nc(=[N+]2CCOCC2)ss1 [Example 5] | 40 | 0 | 0 | 0%
4 | CN1CC[N+](=c2nc(N(C)C)ss2)CC1 [Example 8] | 40 | 0 | 0 | 0%
5 | CC(C)[N+](=c1nc(N(C)C)ss1)C(C)C [Example 10] | 20 | 0 | 0 | 0%
6 | CN(C)c1nc(=[N+](C)c2ccccc2)ss1.F[B-](F)(F)F [Example 3, N-(5-dimethylamino-3H-1,2,4-dithiazole-3-ylidene)-N-methylanilinium tetrafluoroborate] | 80 | 40 | 0 | 0%
7 | CC1C[N+](=c2nc(N(C)C)ss2)CC(C)O1.[I-] (centres unmarked) [Example 2, 4-(5-dimethylamino-3H-1,2,4-dithiazole-3-ylidene)-2,6-dimethyl-morpholinium iodide] | 100 | 20 | 0 | 0%
8 | CN(C)c1nc(=[N+](C)Cc2ccc(Cl)c(Cl)c2)ss1 [Example 43] | 20 | 20 | 0 | 0%
